Source: article PMC6409085, “Three odorant-binding proteins are involved in the behavioral response of Sogatella furcifera to rice plant volatiles” (PeerJ, 2019)
Values joined by “and” are separate entries in the source; they are usually repeats but may differ in a detail not shown here. Equal entries are not always repeated.

What was measured:
SfurOBP3 = SfurOBP3 (Sogatella furcifera, UniProt V5T818); assay: biochemical; type: binding; settings: for Fluorescence competitive binding assay, fluorescence intensity: OBP3, three replicate columns;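 on Fluorescence competitive binding assay, fluorescence intensity: competitor odorant at 2 to 20 µM with protein and 1-NPN both 2.0 µM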
Sequence of SfurOBP3 (V5T818 entry or part of it): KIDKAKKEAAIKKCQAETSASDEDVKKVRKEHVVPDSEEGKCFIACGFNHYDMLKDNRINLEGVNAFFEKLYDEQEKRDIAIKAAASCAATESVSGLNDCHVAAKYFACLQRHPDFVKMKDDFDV
Outline: (§1)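 In 50 mM Tris-HCl pH 7.4, odorants displace 1-NPN (2.0 µM) from 2.0 µM protein. Emission at 390–490 nm under 337 nm excitation is measured 2 min after competitor addition, in triplicate. Ki is obtained from IC50 and the 1-NPN dissociation constant.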

SfurOBP1 = SfurOBP1 (Sogatella furcifera, UniProt V5T8N5); assay: biochemical; type: binding; settings: for Fluorescence competitive binding assay, fluorescence intensity: OBP1, three replicate columns
Sequence of SfurOBP1 (V5T8N5 entry or part of it): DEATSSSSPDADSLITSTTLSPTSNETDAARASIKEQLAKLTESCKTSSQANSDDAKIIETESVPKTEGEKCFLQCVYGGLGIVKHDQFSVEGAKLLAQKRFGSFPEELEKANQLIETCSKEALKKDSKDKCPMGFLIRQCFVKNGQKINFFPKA
Outline: as §1

SfurOBP11 = SfurOBP11 (Sogatella furcifera, UniProt V5T6E3); assay: biochemical; type: binding
Sequence of SfurOBP11 (V5T6E3 entry or part of it): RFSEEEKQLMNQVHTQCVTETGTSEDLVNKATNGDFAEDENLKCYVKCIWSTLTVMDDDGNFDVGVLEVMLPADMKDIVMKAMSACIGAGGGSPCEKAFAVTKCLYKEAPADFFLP
Outline: as §1

SfurOBP2 = SfurOBP2 (Sogatella furcifera, UniProt V5T759); assay: biochemical; type: binding
Sequence of SfurOBP2 (V5T759 entry or part of it): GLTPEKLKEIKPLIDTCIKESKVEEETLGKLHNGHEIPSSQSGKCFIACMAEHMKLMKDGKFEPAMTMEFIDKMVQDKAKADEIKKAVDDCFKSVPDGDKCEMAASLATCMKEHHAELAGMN
Outline: as §1

S. furcifera adults = assay: Y-tube olfactometer behavioral trials; type: in vivo, Sogatella furcifera; settings: odorant 50 µL/L vs hexane; adults
Outline: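 Single S. furcifera adults (2 days post-emergence, starved 0.5 h) chose between odorant (100 µL of 50 µL/L on filter paper) and hexane control in a glass Y-tube, charcoal-filtered humidified air 300 mL/min per arm, 25 ± 1 °C, 50% RH. Choice scored if insect passed half an arm and stayed >1 min within 10 min; 45 insects per compound, chi-squared test.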
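Wherever Fluorescence competitive binding assay, fluorescence intensity is given: competitor odorant at 2 to 20 µM with protein and 1-NPN both 2.0 µM.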

Q: What does the source list for `Cc1ccc(C(C)C)cc1` [4-isopropyltoluene]?
A: IC50 (SfurOBP3): > 20 µM; Fluorescence competitive binding assay, fluorescence intensity (SfurOBP3; ligand concentration 2): 76459 and 72745 and 73014; Fluorescence competitive binding assay, fluorescence intensity (SfurOBP3; ligand concentration 4): 75454 and 75539 and 76517; Fluorescence competitive binding assay, fluorescence intensity (SfurOBP3; ligand concentration 6): 77021 and 76644 and 73341; Fluorescence competitive binding assay, fluorescence intensity (SfurOBP3; ligand concentration 8): 70448 and 67651 and 65820; Fluorescence competitive binding assay, fluorescence intensity (SfurOBP3; ligand concentration 10): 65984 and 64535 and 66083; Fluorescence competitive binding assay, fluorescence intensity (SfurOBP3; ligand concentration 12): 59229 and 62714 and 59705; Fluorescence competitive binding assay, fluorescence intensity (SfurOBP3; ligand concentration 14): 51855 and 54624 and 58162; Fluorescence competitive binding assay, fluorescence intensity (SfurOBP3; ligand concentration 16): 47509 and 50343 and 51946; Fluorescence competitive binding assay, fluorescence intensity (SfurOBP3; ligand concentration 18): 53658 and 55976 and 54775; Fluorescence competitive binding assay, fluorescence intensity (SfurOBP3; ligand concentration 20): 49838 and 49582 and 48822; IC50 (SfurOBP1): > 20 µM; Fluorescence competitive binding assay, fluorescence intensity (SfurOBP1; ligand concentration 2 (μM)): 7244 and 8974 and 9151; Fluorescence competitive binding assay, fluorescence intensity (SfurOBP1; ligand concentration 4 (μM)): 8883 and 8922 and 8958; Fluorescence competitive binding assay, fluorescence intensity (SfurOBP1; ligand concentration 6 (μM)): 7592 and 6723 and 7351; Fluorescence competitive binding assay, fluorescence intensity (SfurOBP1; ligand concentration 8 (μM)): 6920 and 7774 and 7302; Fluorescence competitive binding assay, fluorescence intensity (SfurOBP1; ligand concentration 10 (μM)): 7780 and 7649 and 7941; Fluorescence competitive binding assay, fluorescence intensity (SfurOBP1; ligand concentration 12 (μM)): 6330 and 8293 and 7991; Fluorescence competitive binding assay, fluorescence intensity (SfurOBP1; ligand concentration 14 (μM)): 6493 and 6423 and 6689; Fluorescence competitive binding assay, fluorescence intensity (SfurOBP1; ligand concentration 16 (μM)): 5419 and 7344 and 6052; Fluorescence competitive binding assay, fluorescence intensity (SfurOBP1; ligand concentration 18 (μM)): 6795 and 8973 and 7227; Fluorescence competitive binding assay, fluorescence intensity (SfurOBP1; ligand concentration 20 (μM)): 8723 and 7567 and 6306; IC50 (SfurOBP11): > 20 µM; Fluorescence intensity, fluorescence competitive binding assay, OBP11 (SfurOBP11; ligand concentration 2, replicate 1): 35978; Fluorescence intensity, fluorescence competitive binding assay, OBP11 (SfurOBP11; ligand concentration 2, replicate 2): 29566; Fluorescence intensity, fluorescence competitive binding assay, OBP11 (SfurOBP11; ligand concentration 2, replicate 3): 32252; Fluorescence intensity, fluorescence competitive binding assay, OBP11 (SfurOBP11; ligand concentration 4, replicate 1): 30015; Fluorescence intensity, fluorescence competitive binding assay, OBP11 (SfurOBP11; ligand concentration 4, replicate 2): 32067; Fluorescence intensity, fluorescence competitive binding assay, OBP11 (SfurOBP11; ligand concentration 4, replicate 3): 31035; Fluorescence intensity, fluorescence competitive binding assay, OBP11 (SfurOBP11; ligand concentration 6, replicate 1): 30703; Fluorescence intensity, fluorescence competitive binding assay, OBP11 (SfurOBP11; ligand concentration 6, replicate 2): 29596; Fluorescence intensity, fluorescence competitive binding assay, OBP11 (SfurOBP11; ligand concentration 6, replicate 3): 29854; Fluorescence intensity, fluorescence competitive binding assay, OBP11 (SfurOBP11; ligand concentration 8, replicate 1): 26981; Fluorescence intensity, fluorescence competitive binding assay, OBP11 (SfurOBP11; ligand concentration 8, replicate 2): 27991; Fluorescence intensity, fluorescence competitive binding assay, OBP11 (SfurOBP11; ligand concentration 8, replicate 3): 25842; Fluorescence intensity, fluorescence competitive binding assay, OBP11 (SfurOBP11; ligand concentration 10, replicate 1): 25875; Fluorescence intensity, fluorescence competitive binding assay, OBP11 (SfurOBP11; ligand concentration 10, replicate 2): 25879; Fluorescence intensity, fluorescence competitive binding assay, OBP11 (SfurOBP11; ligand concentration 10, replicate 3): 25958; Fluorescence intensity, fluorescence competitive binding assay, OBP11 (SfurOBP11; ligand concentration 12, replicate 1): 23828; Fluorescence intensity, fluorescence competitive binding assay, OBP11 (SfurOBP11; ligand concentration 12, replicate 2): 23071; Fluorescence intensity, fluorescence competitive binding assay, OBP11 (SfurOBP11; ligand concentration 12, replicate 3): 23450; Fluorescence intensity, fluorescence competitive binding assay, OBP11 (SfurOBP11; ligand concentration 14, replicate 1): 21639; Fluorescence intensity, fluorescence competitive binding assay, OBP11 (SfurOBP11; ligand concentration 14, replicate 2): 22165; Fluorescence intensity, fluorescence competitive binding assay, OBP11 (SfurOBP11; ligand concentration 14, replicate 3): 24226; Fluorescence intensity, fluorescence competitive binding assay, OBP11 (SfurOBP11; ligand concentration 16, replicate 1): 19389; Fluorescence intensity, fluorescence competitive binding assay, OBP11 (SfurOBP11; ligand concentration 16, replicate 2): 17044; Fluorescence intensity, fluorescence competitive binding assay, OBP11 (SfurOBP11; ligand concentration 16, replicate 3): 20238; Fluorescence intensity, fluorescence competitive binding assay, OBP11 (SfurOBP11; ligand concentration 18, replicate 1): 24841; Fluorescence intensity, fluorescence competitive binding assay, OBP11 (SfurOBP11; ligand concentration 18, replicate 2): 23918; Fluorescence intensity, fluorescence competitive binding assay, OBP11 (SfurOBP11; ligand concentration 18, replicate 3): 23440; Fluorescence intensity, fluorescence competitive binding assay, OBP11 (SfurOBP11; ligand concentration 20, replicate 1): 24558; Fluorescence intensity, fluorescence competitive binding assay, OBP11 (SfurOBP11; ligand concentration 20, replicate 2): 23570; Fluorescence intensity, fluorescence competitive binding assay, OBP11 (SfurOBP11; ligand concentration 20, replicate 3): 24060; IC50 (SfurOBP2): > 20 µM; Fluorescence competitive binding assay, OBP2 (raw fluorescence reading) (SfurOBP2; ligand concentration 2 (unit not given), replicate column 1 of 3): 17529; Fluorescence competitive binding assay, OBP2 (raw fluorescence reading) (SfurOBP2; ligand concentration 2 (unit not given), replicate column 2 of 3): 17068; Fluorescence competitive binding assay, OBP2 (raw fluorescence reading) (SfurOBP2; ligand concentration 2 (unit not given), replicate column 3 of 3): 16667; Fluorescence competitive binding assay, OBP2 (raw fluorescence reading) (SfurOBP2; ligand concentration 4 (unit not given), replicate column 1 of 3): 17068; Fluorescence competitive binding assay, OBP2 (raw fluorescence reading) (SfurOBP2; ligand concentration 4 (unit not given), replicate column 2 of 3): 16662; Fluorescence competitive binding assay, OBP2 (raw fluorescence reading) (SfurOBP2; ligand concentration 4 (unit not given), replicate column 3 of 3): 16270; Fluorescence competitive binding assay, OBP2 (raw fluorescence reading) (SfurOBP2; ligand concentration 6 (unit not given), replicate column 1 of 3): 17127; Fluorescence competitive binding assay, OBP2 (raw fluorescence reading) (SfurOBP2; ligand concentration 6 (unit not given), replicate column 2 of 3): 17348; Fluorescence competitive binding assay, OBP2 (raw fluorescence reading) (SfurOBP2; ligand concentration 6 (unit not given), replicate column 3 of 3): 16845; Fluorescence competitive binding assay, OBP2 (raw fluorescence reading) (SfurOBP2; ligand concentration 8 (unit not given), replicate column 1 of 3): 17260; Fluorescence competitive binding assay, OBP2 (raw fluorescence reading) (SfurOBP2; ligand concentration 8 (unit not given), replicate column 2 of 3): 16330; Fluorescence competitive binding assay, OBP2 (raw fluorescence reading) (SfurOBP2; ligand concentration 8 (unit not given), replicate column 3 of 3): 16495; Fluorescence competitive binding assay, OBP2 (raw fluorescence reading) (SfurOBP2; ligand concentration 10 (unit not given), replicate column 1 of 3): 16487; Fluorescence competitive binding assay, OBP2 (raw fluorescence reading) (SfurOBP2; ligand concentration 10 (unit not given), replicate column 2 of 3): 17551; Fluorescence competitive binding assay, OBP2 (raw fluorescence reading) (SfurOBP2; ligand concentration 10 (unit not given), replicate column 3 of 3): 16673; Fluorescence competitive binding assay, OBP2 (raw fluorescence reading) (SfurOBP2; ligand concentration 12 (unit not given), replicate column 1 of 3): 14433; Fluorescence competitive binding assay, OBP2 (raw fluorescence reading) (SfurOBP2; ligand concentration 12 (unit not given), replicate column 2 of 3): 15818; Fluorescence competitive binding assay, OBP2 (raw fluorescence reading) (SfurOBP2; ligand concentration 12 (unit not given), replicate column 3 of 3): 14693; Fluorescence competitive binding assay, OBP2 (raw fluorescence reading) (SfurOBP2; ligand concentration 14 (unit not given), replicate column 1 of 3): 14333; Fluorescence competitive binding assay, OBP2 (raw fluorescence reading) (SfurOBP2; ligand concentration 14 (unit not given), replicate column 2 of 3): 14565; Fluorescence competitive binding assay, OBP2 (raw fluorescence reading) (SfurOBP2; ligand concentration 14 (unit not given), replicate column 3 of 3): 13503; Fluorescence competitive binding assay, OBP2 (raw fluorescence reading) (SfurOBP2; ligand concentration 16 (unit not given), replicate column 1 of 3): 12972; Fluorescence competitive binding assay, OBP2 (raw fluorescence reading) (SfurOBP2; ligand concentration 16 (unit not given), replicate column 2 of 3): 13456; Fluorescence competitive binding assay, OBP2 (raw fluorescence reading) (SfurOBP2; ligand concentration 16 (unit not given), replicate column 3 of 3): 13282; Fluorescence competitive binding assay, OBP2 (raw fluorescence reading) (SfurOBP2; ligand concentration 18 (unit not given), replicate column 1 of 3): 13043; Fluorescence competitive binding assay, OBP2 (raw fluorescence reading) (SfurOBP2; ligand concentration 18 (unit not given), replicate column 2 of 3): 13102; Fluorescence competitive binding assay, OBP2 (raw fluorescence reading) (SfurOBP2; ligand concentration 18 (unit not given), replicate column 3 of 3): 13475; Fluorescence competitive binding assay, OBP2 (raw fluorescence reading) (SfurOBP2; ligand concentration 20 (unit not given), replicate column 1 of 3): 13105; Fluorescence competitive binding assay, OBP2 (raw fluorescence reading) (SfurOBP2; ligand concentration 20 (unit not given), replicate column 2 of 3): 12354; Fluorescence competitive binding assay, OBP2 (raw fluorescence reading) (SfurOBP2; ligand concentration 20 (unit not given), replicate column 3 of 3): 13093; number of insects choosing hexane arm (S. furcifera adults): 13; number of insects choosing volatilies arm (S. furcifera adults): 11; number of insects failed (no choice) (S. furcifera adults): 16
